Broadly, the Ki is the equilibrium dissociation constant of an inhibitor or competing ligand from its target.

The source of these data is patent US6288230A, “2-(2, 3-dihydrobenzofuran-5-yl)-4-aminomethylimidazoles: dopamine receptor subtype specific ligands” (Neurogen Corporation, priority 1999, dated 2001).

Counter-ions that a name gives are not always drawn.

One assay addresses D2 receptor (Chlorocebus aethiops, UniProt P52702). Put plainly: D2 receptor binding (displacement of 3H-YM 09151-2, COS cells with recombinant receptor). Also noted: species or system African Green monkey. The conditions noted are these: 0.5 nM 3H-YM 09151-2; nonspecific binding with 1 mM spiperone. (In general: Loss of bound radioactivity is the signal in a displacement assay; it reports binding, not function.)

The test system of a further assay is D4 receptor. Put plainly: D4 receptor binding (displacement of 3H-YM 09151-2, COS cells with recombinant receptor). As to conditions: 0.5 nM 3H-YM 09151-2; nonspecific binding with 1 mM spiperone. Also noted: species or system African Green monkey. The method, then:
Pellets of COS cells containing recombinantly produced D2 or D4 receptors from African Green monkey are used for the assays. The sample is homogenized in 100 volumes (w/vol) of 0.05 M Tris HCl buffer at […] and pH 7.4. The sample is then centrifuged at 30,000×g and resuspended and rehomogenized. The sample is then centrifuged again at 30,000×g and the final tissue sample is frozen until use. The tissue is resuspended 1:20 (wt/vol) in 0.05 M Tris HCl buffer containing 100 mM NaCl.

Chain of D2 receptor (P52702 whole entry): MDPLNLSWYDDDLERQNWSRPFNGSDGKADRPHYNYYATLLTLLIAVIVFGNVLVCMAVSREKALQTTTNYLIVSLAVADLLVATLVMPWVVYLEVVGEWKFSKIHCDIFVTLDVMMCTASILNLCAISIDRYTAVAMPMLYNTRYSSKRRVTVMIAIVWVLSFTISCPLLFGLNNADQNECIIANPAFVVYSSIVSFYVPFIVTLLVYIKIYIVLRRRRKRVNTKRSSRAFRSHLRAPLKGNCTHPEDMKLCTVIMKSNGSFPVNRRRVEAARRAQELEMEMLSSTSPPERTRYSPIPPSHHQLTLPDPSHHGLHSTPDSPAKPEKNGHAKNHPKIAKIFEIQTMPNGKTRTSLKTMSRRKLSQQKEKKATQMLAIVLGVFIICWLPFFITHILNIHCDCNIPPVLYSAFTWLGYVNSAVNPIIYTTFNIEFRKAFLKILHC

Turning to `Cc1cnc(N2CCN(Cc3cnc(-c4ccc5c(c4)CCO5)[nH]3)CC2)nc1` [Compound 3a, 5-(5-{[4-(5-methylpyrimidin-2-yl)piperazinyl]-methyl}imidazol-2-yl)-2,3-dihydrobenzo[b]furan], on D2 receptor, the inhibitory constant (Ki) came out at 716 nM.

For `c1ccc(CC2CCN(Cc3c[nH]c(-c4ccc5c(c4)CCO5)n3)CC2)cc1` [Compound 6, 2-(2,3-Dihydrobenzofuran-5-yl)-4-(1-[4-benzylpiperidin-1-yl]methyl)imidazole hydrochloride], the Ki came to 650 nM at D2 receptor and 3 nM in the assay on D4 receptor.

Take `COc1ccccc1N1CCN(Cc2c[nH]c(-c3ccc4c(c3)CCO4)n2)CC1` [Compound 1, 2-(2,3-Dihydrobenzofuran-5-yl)-4-(1-[4-{2-methoxyphenyl}piperazin-1-yl]methyl)imidazole]: the results for the inhibitory constant (Ki) on D2 receptor and with D4 receptor were 143 nM and 3 nM, respectively.

With `c1ccc2c(N3CCN(Cc4c[nH]c(-c5ccc6c(c5)CCO6)n4)CC3)nccc2c1` [Compound 8, 2-(2,3-Dihydrobenzofuran-5-yl)-4-(1-[4-{isoquinolin-1-yl}piperazin-1-yl]methyl)imidazole], the results for the Ki on D2 receptor and in the assay with D4 receptor were 125 nM and 1 nM, respectively.

Consider `c1ccc2nc(N3CCN(Cc4cnc(-c5ccc6c(c5)CCO6)[nH]4)CC3)ncc2c1` [Compound 7, 2-(2,3-Dihydrobenzofuran-5-yl)-4-(1-[4-{4,5-benzopyrimidin-2-yl}piperazin-1-yl]methyl)imidazole hydrochloride], for which the figures for the Ki on D2 receptor and in the assay with D4 receptor were 1130 nM and 32 nM, respectively.
